Measurements reported in patent publication US20180243211A1, “A PHARMACEUTICAL COMPOSITION FOR REDUCING LOCAL FAT AND USES THEREOF” (Caliway Biopharmaceuticals Co., Ltd., priority 2015, published 2018).

System: mature adipocytes (differentiated 3T3-L1 cells)
Assay: Experiment 10-2: apoptosis of mature adipocytes (annexin V/PI flow cytometry), resveratrol with hydrophilic drugs
Assay type: cell-based
Conditions: 50 ppm total drug (complexes 20 ppm resveratrol + 30 ppm second drug), 24 hours; sterile water control 9.6±1.5%
Procedure: A sterile water control group cell culture medium, a resveratrol cell culture medium, a caffeine cell culture medium, a L-carnitine cell culture medium, a resveratrol-caffeine complex cell culture medium, and a resveratrol-L-carnitine complex cell culture medium were prepared as follows: The sterile water control group cell culture medium: Sterile water was mixed with a cell culture medium to prepare the sterile water control group cell culture medium, wherein, the volume ratio between the sterile water and the cell culture medium is 1:1000. The resveratrol cell culture medium: it is the same method as the preparation of the resveratrol cell culture medium in Experiment 9-2. The caffeine cell culture medium: caffeine (purchased from Sigma-Aldrich) was mixed with an appropriate amount of sterile water to obtain a caffeine solution. The caffeine solution was mixed with a cell culture medium to prepare the caffeine cell culture medium containing 50 ppm of caffeine, wherein, the volume ratio between the caffeine solution and the cell culture medium is 1:1000. The L-carnitine cell culture medium: L-carnitine (purchased from Sigma-Aldrich) was mixed with an appropriate amount of sterile water to obtain a L-carnitine solution. The L-carnitine solution was mixed with a cell culture medium to prepare the L-carnitine cell culture medium containing 50 ppm of L-carnitine, wherein, the volume ratio between the L-carnitine solution and the cell culture medium is 1:1000. The resveratrol-caffeine complex cell culture medium: resveratrol, caffeine, and an appropriate amount of sterile water were mixed to obtain a resveratrol-caffeine complex solution. […] Annexin V protein (purchased from eBioscience) and propidium iodide (PI; purchased from eBioscience) were mixed with the cells in each group for a period of time, and then the percentage of cells labeled by annexin V protein and PI in each group was analyzed by flow cytometry to assess the percentage of mature adipocytes undergoing apoptosis.

Compound | percentage of apoptotic cells [%]
C[N+](C)(C)C[C@H](O)CC(=O)[O-] [L-carnitine] | 5.2±1.2
Cn1c(=O)c2c(ncn2C)n(C)c1=O [caffeine] | 6.9±1.1
Oc1ccc(C=Cc2cc(O)cc(O)c2)cc1 [resveratrol] | 19.0±1.1

System: mature adipocytes (differentiated 3T3-L1 cells)
Assay: Experiment 9-2: apoptosis of mature adipocytes (annexin V/PI flow cytometry), resveratrol with lipophilic drugs
Assay type: cell-based
Conditions: 50 ppm total drug (complexes 20 ppm resveratrol + 30 ppm second drug), 24 hours; DMSO control 4.9±2.5%
Procedure: A DMSO control group cell culture medium, a resveratrol cell culture medium, a puerarin cell culture medium, a quercetin cell culture medium, a resveratrol-puerarin complex cell culture medium, and a resveratrol-quercetin complex cell culture medium were prepared as follows: The DMSO control group cell culture medium: DMSO was mixed with an appropriate amount of sterile water to obtain a 0.5% DMSO solution. The 0.5% DMSO solution was mixed with a cell culture medium (product name: Dulbecco's Modified Eagle Medium, purchased from Gibco) to prepare the DMSO control group cell culture medium, wherein, the volume ratio between the 0.5% DMSO solution and the cell culture medium is 1:1000. The resveratrol cell culture medium: resveratrol was mixed with an appropriate amount of 0.5% DMSO solution to obtain a resveratrol solution. The resveratrol solution was mixed with a cell culture medium (product name: Dulbecco's Modified Eagle Medium, purchased from Gibco) to prepare the resveratrol cell culture medium containing 50 ppm of resveratrol, wherein, the volume ratio between the resveratrol solution and the cell culture medium is 1:1000. The puerarin cell culture medium: puerarin (purchased from Sigma-Aldrich) was mixed with an appropriate amount of 0.5% DMSO solution to obtain a puerarin solution. The puerarin solution was mixed with a cell culture medium to prepare the puerarin cell culture medium containing 50 ppm of puerarin, wherein, the volume ratio between the puerarin solution and the cell culture medium is 1:1000. The quercetin cell culture medium: quercetin (purchased from Sigma-Aldrich) was mixed with an appropriate amount of 0.5% DMSO solution to obtain a quercetin solution. […] Annexin V protein (purchased from eBioscience) and propidium iodide (PI; purchased from eBioscience) were mixed with the cells in each group for a period of time, and then the percentage of cells labeled by annexin V protein and PI in each group was analyzed by flow cytometry to assess the percentage of mature adipocytes undergoing apoptosis. […]

Compound | percentage of apoptotic cells [%]
O=c1c(-c2ccc(O)cc2)coc2c([C@@H]3O[C@H](CO)[C@@H](O)[C@H](O)[C@H]3O)c(O)ccc12 [puerarin] | 7.2±3.7
O=c1c(O)c(-c2ccc(O)c(O)c2)oc2cc(O)cc(O)c12 [quercetin] | 5.9±2.6
Oc1ccc(C=Cc2cc(O)cc(O)c2)cc1 [resveratrol] | 19.1±1.1
